These are literature values, as cited in patent publication US20230019999A1, “COMBINATION DRUG” (Chugai Seiyaku Kabushiki Kaisha, priority 2019, published 2023).

This data set relates to lung cancer cells positive for the CCDC6-RET fusion gene. As to conditions: non-clinical studies, Non Patent Literatures 9 and 10.

`CCc1cc2c(cc1N1CCC(N3CCOCC3)CC1)C(C)(C)c1[nH]c3cc(C#N)ccc3c1C2=O` [Alectinib, 9-ethyl-6,6-dimethyl-8-[4-(morpholin-4-yl)-piperidin-1-yl]-11-oxo-6,11-dihydro-5H-benzo[b]carbazole-3-carbonitrile]: the anti-tumor effect result is “exhibit an anti-tumor effect”.
